From patent US20100278983A1, “COMPOSITION OF MONASCUS FERMENTED PRODUCT WITH A FUNCTION THAT REDUCES BODY FATNESS FORMATION AND THE METHOD FOR MANUFACTURING THE SAME” (SUNWAY BIOTECH CO., LTD., priority 2009, published 2010)

Tests used:
3T3-L1 preadipocyte [1] = experiment: Proliferation rate of 3T3-L1 preadipocyte; format: cell-based; settings: for decrease of proliferation rate of 3T3-L1 preadipocyte: 24 hours
Text: (§1) 3T3-L1 preadipocyte is used as the experimental material in the in vitro cellular experiments to probe into the effects of Monascus fermented product on proliferation and differentiation in preadipocyte.

3T3-L1 preadipocyte [2] = experiment: Differentiation rate of 3T3-L1 preadipocyte (content of triglyceride, TG); format: cell-based; settings: Mus musculus; for inhibition at 125 µg/mL: 0.125 mg/mL
Procedure: as §1
In this research, 50, 100 and 200 μg/mL of water extracts of red mold rice and red mold dioscorea are added to 3T3-L1 preadipocyte respectively during differentiation induction and then the cells are collected to be analyzed the content of triglyceride after 8 days of differentiation. TG synthesis is an indicator for the differentiation late phase of the fat cells, thus the TG content in cells are usually used to determine the differentiation rate.

[3] = Body weight of rats fed with high-fat diet and Monascus fermented product; format: in vivo, male Wister rats; settings: after 6 weeks of feeding, dosage not stated
Text: In order to estimate the effects of Monascus fermented product on the decrease in body fat mass development and body weight-lowering, the present invention carried out in vitro cellular experiments and in vivo experiments. 3T3-L1 preadipocyte is used as the experimental material in the in vitro cellular experiments to probe into the effects of Monascus fermented product on proliferation and differentiation in preadipocyte. Male Wister rates are used as the experimental animals in the in vivo experiments and fed with high-fat diet and Monascus fermented products at the same time, then determine the effects of the decrease in body fat mass development by many evaluation indicators after […] of breeding.
Rats are randomly divided into to 9 groups, each include 8 rats, on the principles that the initial average weights of rats are unanimous. Rats are fed with high-fat diet and Monascus fermented product at the same time in experiments and then sacrificed for every analyses after 6 weeks of feeding. […]

Row | SMILES | inhibition at 1000 µg/mL (3T3-L1 preadipocyte [1]; Mus musculus, 3T3-L1, 1 mg/mL, 72 hours) | inhibition at 125 µg/mL (3T3-L1 preadipocyte [2]) | decrease of proliferation rate of 3T3-L1 preadipocyte (3T3-L1 preadipocyte [1]; 1.25 μg/mL) | decrease of proliferation rate of 3T3-L1 preadipocyte (3T3-L1 preadipocyte [1]; 2.5 μg/mL) | decrease of proliferation rate of 3T3-L1 preadipocyte (3T3-L1 preadipocyte [1]; 5 μg/mL) | decrease of proliferation rate of 3T3-L1 preadipocyte (3T3-L1 preadipocyte [1]; 10 μg/mL) | Final body weight [3] | Increment of body weight [3] | inhibition at 250 µg/mL (3T3-L1 preadipocyte [2]; 0.25 mg/mL)
1 | C/C=C/C1=CC2=C(CO1)C(=O)[C@]1(C)OC(=O)[C@H](C(=O)CCCCC)[C@H]1C2 [monascin] | 8% | 31.2% | – | – | – | – | – | – | –
2 | CC[C@H](C)C(=O)O[C@H]1C[C@@H](C)C=C2C=C[C@H](C)[C@H](CC[C@@H]3C[C@@H](O)CC(=O)O3)[C@H]21 [Monacolin K] | – | – | 13.0% | 18.2% | 23.9% | 28.6% | 472.4 g | 141.1 g | –
3 | C/C=C/C1=CC2=C(CO1)C(=O)[C@]1(C)OC(=O)[C@H](C(=O)CCCCCCC)[C@H]1C2 [ankaflavin] | – | 41.2% | – | – | – | – | – | – | 29.9%
